Positions of bridges follow the written chain, without caps; N, C: chain ends. Residues, ends and D or L forms follow the SMILES beside them.
Experiments:
Format in all cases: cell-based
[1] = molecular target: T1, rKV1.1 (Rattus norvegicus, UniProt P10499); assay: Two-electrode voltage-clamp on Xenopus laevis oocytes expressing rKV1.1; settings: for IC50: concentration-response curve, percentage blocked current fitted with Hill equation, TEVC oocytes, 0 mV from −90 mV, read-out: KV1.1 IC50
T1 construct: expressed in transfected cells; host or cells: Xenopus laevis oocytes injected with cRNA
T1 sequence (P10499 whole entry): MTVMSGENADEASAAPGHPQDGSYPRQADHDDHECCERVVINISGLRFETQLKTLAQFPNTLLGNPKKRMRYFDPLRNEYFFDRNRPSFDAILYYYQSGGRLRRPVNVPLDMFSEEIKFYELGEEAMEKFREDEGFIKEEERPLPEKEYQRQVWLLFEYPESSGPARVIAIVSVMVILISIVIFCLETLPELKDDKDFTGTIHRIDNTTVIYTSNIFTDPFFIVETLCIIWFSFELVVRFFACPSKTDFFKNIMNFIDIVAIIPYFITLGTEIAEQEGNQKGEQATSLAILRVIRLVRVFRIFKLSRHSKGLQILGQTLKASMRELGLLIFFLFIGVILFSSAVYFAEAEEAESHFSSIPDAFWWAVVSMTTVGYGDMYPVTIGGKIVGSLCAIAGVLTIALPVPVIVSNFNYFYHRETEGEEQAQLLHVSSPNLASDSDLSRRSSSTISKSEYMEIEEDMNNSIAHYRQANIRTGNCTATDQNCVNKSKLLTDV
Description: (§1) The pharmacological effect of AbeTx1 was analyzed by heterologous expression of 12 voltage-gated potassium channels isoforms (rKV1.1, Genbank NM173095; rKV1.2, Genbank NM012970; hKV1.3, Genbank L23499; rKV1.4,Genbank NM012971; rKV1.5, Genbank NM012972; rKV1.6, Genbank NM575671; Shaker IR from Drosophila melanogaster, Genbank CG12348; rKV2.1, Genbank NM013186; hKV3.1, Genbank NM004976; rKV4.2, Genbank NM031730; rKV4.3, Genbank NM031739 and hERG, Genbank NM000238), and three voltage-gated sodium channel subtypes (rNaV1.2, Genbank NM012647; rNaV1.4, Genbank M26643 and BgNaV1.1, from Blattella germanica) (r, rat; h, human) in oocytes from Xenopus laevis. The linearized plasmids were transcribed using a T7 or SP6 mMESSAGE-mMACHINE transcription kit (Life Technologies, Austin, TX, USA). Oocytes were injected with 20–50 nL of cRNA at a concentration of 1 ng·nL^−1 using a microinjector (Drummond Scientific, Broomall, PA, USA). The oocytes were stored for 1–3 days at 16 °C until sufficient expression of voltage-gated ion channels was achieved. Oocytes were maintained in an ND96 solution (in mM: 96 NaCl, 2 KCl, 1.8 CaCl2, 2 MgCl2 and 5 HEPES; pH 7.4), supplemented with 50 µg·mL^−1 gentamicin sulfate.
(§2) Two-electrode voltage-clamp recordings were performed at room temperature (18–22 °C) using a Geneclamp 500 amplifier (Molecular Devices, Sunnyvale, CA, USA) controlled by a pClamp data acquisition system (Axon Instruments, Union City, CA, USA). ND96 was used as bath solution. Whole-cell currents from oocytes were recorded 1–3 days after injection. Voltage and current electrodes were filled with KCl (3 M). The resistance of both electrodes was kept between 0.8–1.0 MΩ. The elicited currents were filtered at 0.5 or 2 kHz using a four-pole low-pass Bessel filter. Leak subtraction was performed using a -P/4 protocol. KV1.1-KV1.6 and Shaker IR currents were evoked by 500 ms depolarization to 0 mV, followed by a 500 ms pulse to −50 mV, from a holding potential of −90 mV. KV2.1, KV3.1, KV4.2, and KV4.3 currents were elicited by 500 ms pulses to + 20 mV from a holding potential of −90 mV. Current traces of hERG channels were elicited by applying a +40 mV pulse for 2.5 s, followed by a step to −120 mV for 2.5 s. Sodium current traces were evoked by 100 ms depolarization steps from a holding potential of −90 mV to 0 mV. Concentration-response curves were constructed by adding different AbeTx1 or analogs concentrations directly to the bath solution. The percentage of the KV blockade was plotted against the logarithm of the applied concentrations and fitted with the Hill Equation (1):y = 100/[1 + (IC50/[toxin]) × h](1) where y is the amplitude of the toxin-induced effect, IC50 is the toxin concentration at half-maximal efficacy, [toxin] is the toxin concentration, and h is the Hill coefficient. To investigate the effects on the voltage dependence of activation, current traces were evoked by 10 mV depolarization steps from a holding potential of −90 mV. Data were normalized to the maximal K^+ current amplitude, plotted against prepulse potential, and fitted using the Boltzmann Equation (2):IK/Imax = [1 + (exp(Vg − V)/k] − 1(2) where Imax represents maximal potassium current (IK), Vg is the voltage corresponding to half-maximal current, and k is the slope factor. Each experimental data represents mean ± standard error of at least three oocytes (n ≥ 3) from different frogs. Effect of the toxin on current-voltage experiments was statistically examined by comparing the control condition and the presence of toxin using the Student’s paired t-test. P-values < 0.05 are considered to be statistically significant. Data were analyzed using Clampfit 10.4 (Molecular Devices, Sunnyvale, CA, USA) and Origin v8.1 software (Origin Lab, Northampton, MA, USA), under the institutional license of the University of São Paulo.

[2] = molecular target: T2, rKV1.6 (Rattus norvegicus, UniProt P17659); assay: Two-electrode voltage-clamp on Xenopus laevis oocytes expressing rKV1.6; settings: for IC50: concentration-response curve, percentage blocked current fitted with Hill equation, TEVC oocytes, 0 mV from −90 mV, read-out: KV1.6 IC50
T2 construct: expressed in transfected cells; host or cells: Xenopus laevis oocytes injected with cRNA
T2 sequence (P17659 whole entry): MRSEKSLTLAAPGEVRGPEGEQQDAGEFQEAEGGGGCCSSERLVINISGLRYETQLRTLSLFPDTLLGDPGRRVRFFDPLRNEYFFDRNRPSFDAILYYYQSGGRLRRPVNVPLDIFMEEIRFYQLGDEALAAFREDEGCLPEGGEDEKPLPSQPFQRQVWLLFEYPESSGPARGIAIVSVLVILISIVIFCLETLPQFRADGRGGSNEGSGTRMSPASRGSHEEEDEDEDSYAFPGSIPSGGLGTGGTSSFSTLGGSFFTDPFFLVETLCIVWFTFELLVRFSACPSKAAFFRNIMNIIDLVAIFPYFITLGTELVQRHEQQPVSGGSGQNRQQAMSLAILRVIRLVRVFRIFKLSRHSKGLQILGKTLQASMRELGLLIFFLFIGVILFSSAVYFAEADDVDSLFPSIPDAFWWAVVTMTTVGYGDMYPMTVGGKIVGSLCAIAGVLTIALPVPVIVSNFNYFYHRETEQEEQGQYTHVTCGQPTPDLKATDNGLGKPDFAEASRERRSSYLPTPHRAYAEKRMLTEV
Description: as §1, §2

[3] = molecular target: T3, rKV1.2 (Rattus norvegicus, UniProt P63142); assay: Two-electrode voltage-clamp on Xenopus laevis oocytes expressing rKV1.2; settings: 3 µM AbeTx1; TEVC, X. laevis oocytes, 500 ms depolarization to 0 mV from holding −90 mV; mean ± SE, n ≥ 3; SEM; read-out: inhibition of KV1.2 current
T3 construct: expressed in transfected cells; host or cells: Xenopus laevis oocytes injected with cRNA
Description: as §1, with “Oocytes were injected with 20–50 nL of cRNA at a concentration of 1 ng·nL^−1 using a microinjector (Drummond Scientific, Broomall, PA, USA). The oocytes were stored for 1–3 days at 16 °C until sufficient expression of voltage-gated ion channels was achieved. Oocytes were maintained in an ND96 solution (in mM: 96 NaCl, 2 KCl, 1.8 CaCl2, 2 MgCl2 and 5 HEPES; pH 7.4), supplemented with 50 µg·mL^−1 gentamicin sulfate.” left out
(§3) Two-electrode voltage-clamp recordings were performed at room temperature (18–22 °C) using a Geneclamp 500 amplifier (Molecular Devices, Sunnyvale, CA, USA) controlled by a pClamp data acquisition system (Axon Instruments, Union City, CA, USA). […] Whole-cell currents from oocytes were recorded 1–3 days after injection. […] Data were analyzed using Clampfit 10.4 (Molecular Devices, Sunnyvale, CA, USA) and Origin v8.1 software (Origin Lab, Northampton, MA, USA), under the institutional license of the University of São Paulo.

[4] = molecular target: T4, rNaV1.4 (Rattus norvegicus, UniProt P15390); assay: Two-electrode voltage-clamp on Xenopus laevis oocytes expressing rNaV1.4; settings: 3 µM AbeTx1; TEVC, X. laevis oocytes, 100 ms depolarization from −90 mV to 0 mV
T4 construct: expressed in transfected cells; host or cells: Xenopus laevis oocytes injected with cRNA
Description: as §1, with “Oocytes were injected with 20–50 nL of cRNA at a concentration of 1 ng·nL^−1 using a microinjector (Drummond Scientific, Broomall, PA, USA). The oocytes were stored for 1–3 days at 16 °C until sufficient expression of voltage-gated ion channels was achieved. Oocytes were maintained in an ND96 solution (in mM: 96 NaCl, 2 KCl, 1.8 CaCl2, 2 MgCl2 and 5 HEPES; pH 7.4), supplemented with 50 µg·mL^−1 gentamicin sulfate.” left out
as §3

[5] = molecular target: T5, hKV1.3 (Homo sapiens, UniProt P22001); assay: Two-electrode voltage-clamp on Xenopus laevis oocytes expressing hKV1.3; settings: 3 µM AbeTx1; TEVC, X. laevis oocytes, 500 ms depolarization to 0 mV from holding −90 mV; mean ± SE, n ≥ 3; SEM; read-out: inhibition of KV1.3 current
T5 construct: expressed in transfected cells; host or cells: Xenopus laevis oocytes injected with cRNA
Description: as §1, with “Oocytes were injected with 20–50 nL of cRNA at a concentration of 1 ng·nL^−1 using a microinjector (Drummond Scientific, Broomall, PA, USA). The oocytes were stored for 1–3 days at 16 °C until sufficient expression of voltage-gated ion channels was achieved. Oocytes were maintained in an ND96 solution (in mM: 96 NaCl, 2 KCl, 1.8 CaCl2, 2 MgCl2 and 5 HEPES; pH 7.4), supplemented with 50 µg·mL^−1 gentamicin sulfate.” left out
as §3

[6] = molecular target: T6, rNaV1.2 (Rattus norvegicus, UniProt P04775); assay: Two-electrode voltage-clamp on Xenopus laevis oocytes expressing rNaV1.2; settings: 3 µM AbeTx1; TEVC, X. laevis oocytes, 100 ms depolarization from −90 mV to 0 mV
T6 construct: expressed in transfected cells; host or cells: Xenopus laevis oocytes injected with cRNA
T6 sequence (P04775 whole entry): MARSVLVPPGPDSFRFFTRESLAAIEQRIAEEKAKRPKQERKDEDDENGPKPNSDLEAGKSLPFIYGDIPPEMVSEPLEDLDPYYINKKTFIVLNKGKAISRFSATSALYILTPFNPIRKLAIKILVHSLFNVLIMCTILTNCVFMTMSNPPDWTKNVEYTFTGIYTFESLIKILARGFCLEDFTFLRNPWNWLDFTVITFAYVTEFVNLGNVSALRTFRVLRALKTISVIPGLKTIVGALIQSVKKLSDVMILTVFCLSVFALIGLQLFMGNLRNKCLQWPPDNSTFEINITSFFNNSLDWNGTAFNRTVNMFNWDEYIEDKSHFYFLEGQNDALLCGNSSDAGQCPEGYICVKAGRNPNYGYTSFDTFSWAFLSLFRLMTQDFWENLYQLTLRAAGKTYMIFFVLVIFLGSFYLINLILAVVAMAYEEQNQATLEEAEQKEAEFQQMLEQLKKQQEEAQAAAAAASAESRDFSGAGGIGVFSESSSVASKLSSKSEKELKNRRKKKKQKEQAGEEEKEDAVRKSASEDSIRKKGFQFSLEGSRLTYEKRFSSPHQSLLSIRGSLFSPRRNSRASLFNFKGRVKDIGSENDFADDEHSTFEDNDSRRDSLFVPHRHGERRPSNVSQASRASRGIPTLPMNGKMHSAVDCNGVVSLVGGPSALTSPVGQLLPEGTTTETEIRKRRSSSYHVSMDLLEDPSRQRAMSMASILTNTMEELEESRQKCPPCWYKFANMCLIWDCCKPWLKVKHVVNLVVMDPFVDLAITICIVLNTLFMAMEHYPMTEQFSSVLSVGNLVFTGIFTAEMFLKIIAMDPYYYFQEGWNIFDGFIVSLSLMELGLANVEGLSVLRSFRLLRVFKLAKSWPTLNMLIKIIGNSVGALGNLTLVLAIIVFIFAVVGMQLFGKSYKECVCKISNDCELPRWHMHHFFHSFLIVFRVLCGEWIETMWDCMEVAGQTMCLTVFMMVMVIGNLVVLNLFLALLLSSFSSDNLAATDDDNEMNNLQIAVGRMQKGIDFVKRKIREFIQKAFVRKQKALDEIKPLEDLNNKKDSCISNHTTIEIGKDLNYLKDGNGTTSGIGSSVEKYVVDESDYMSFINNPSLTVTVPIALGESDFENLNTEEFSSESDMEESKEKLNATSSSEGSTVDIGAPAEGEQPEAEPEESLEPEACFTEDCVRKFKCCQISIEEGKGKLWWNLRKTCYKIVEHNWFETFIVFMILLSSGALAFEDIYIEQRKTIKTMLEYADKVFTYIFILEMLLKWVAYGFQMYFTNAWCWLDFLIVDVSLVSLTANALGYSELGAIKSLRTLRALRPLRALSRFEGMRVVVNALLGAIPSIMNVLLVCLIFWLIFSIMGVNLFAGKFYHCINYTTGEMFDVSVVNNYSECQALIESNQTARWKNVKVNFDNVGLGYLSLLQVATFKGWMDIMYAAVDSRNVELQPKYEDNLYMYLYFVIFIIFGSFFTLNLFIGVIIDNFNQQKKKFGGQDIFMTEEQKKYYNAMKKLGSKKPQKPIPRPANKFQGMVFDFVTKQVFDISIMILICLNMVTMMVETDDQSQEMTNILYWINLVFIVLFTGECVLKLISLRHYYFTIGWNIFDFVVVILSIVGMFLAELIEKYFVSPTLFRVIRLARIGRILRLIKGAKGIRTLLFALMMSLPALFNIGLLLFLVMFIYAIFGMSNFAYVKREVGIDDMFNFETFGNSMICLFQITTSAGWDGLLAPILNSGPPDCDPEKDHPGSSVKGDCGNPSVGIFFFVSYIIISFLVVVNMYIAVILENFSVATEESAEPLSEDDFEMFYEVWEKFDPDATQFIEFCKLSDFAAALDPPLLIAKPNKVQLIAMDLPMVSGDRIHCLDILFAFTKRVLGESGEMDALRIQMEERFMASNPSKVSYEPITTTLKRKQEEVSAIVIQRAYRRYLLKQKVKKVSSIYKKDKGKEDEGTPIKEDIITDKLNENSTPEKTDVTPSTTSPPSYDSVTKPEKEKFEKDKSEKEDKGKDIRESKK
Description: as §1, with “Oocytes were injected with 20–50 nL of cRNA at a concentration of 1 ng·nL^−1 using a microinjector (Drummond Scientific, Broomall, PA, USA). The oocytes were stored for 1–3 days at 16 °C until sufficient expression of voltage-gated ion channels was achieved. Oocytes were maintained in an ND96 solution (in mM: 96 NaCl, 2 KCl, 1.8 CaCl2, 2 MgCl2 and 5 HEPES; pH 7.4), supplemented with 50 µg·mL^−1 gentamicin sulfate.” left out
as §3

[7] = molecular target: T7, Shaker IR (Drosophila melanogaster, UniProt P08510, DEL6-46); assay: Two-electrode voltage-clamp on Xenopus laevis oocytes expressing Shaker IR; settings: 3 µM AbeTx1; TEVC, X. laevis oocytes, 500 ms depolarization to 0 mV from holding −90 mV; mean ± SE, n ≥ 3; SEM; read-out: inhibition of Shaker IR current
T7 construct: expressed in transfected cells; host or cells: Xenopus laevis oocytes injected with cRNA
T7 sequence (P08510 with tags, fused parts or gaps DEL6-46): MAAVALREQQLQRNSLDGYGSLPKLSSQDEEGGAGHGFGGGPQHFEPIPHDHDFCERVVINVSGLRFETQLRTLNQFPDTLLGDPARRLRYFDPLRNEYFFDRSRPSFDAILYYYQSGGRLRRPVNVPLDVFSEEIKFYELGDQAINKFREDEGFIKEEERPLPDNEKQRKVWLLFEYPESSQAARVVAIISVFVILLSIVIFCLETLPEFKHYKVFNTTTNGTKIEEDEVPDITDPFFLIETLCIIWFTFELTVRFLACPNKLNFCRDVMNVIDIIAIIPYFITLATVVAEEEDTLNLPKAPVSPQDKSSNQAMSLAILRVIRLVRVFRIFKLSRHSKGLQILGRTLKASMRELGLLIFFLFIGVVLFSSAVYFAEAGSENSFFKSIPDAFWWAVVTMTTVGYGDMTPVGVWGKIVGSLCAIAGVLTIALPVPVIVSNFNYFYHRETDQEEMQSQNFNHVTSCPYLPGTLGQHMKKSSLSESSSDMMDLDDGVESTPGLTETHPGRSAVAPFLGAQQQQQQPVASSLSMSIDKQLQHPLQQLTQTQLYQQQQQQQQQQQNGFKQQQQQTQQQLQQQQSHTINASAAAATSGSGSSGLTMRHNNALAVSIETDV
Description: as §1, with “Oocytes were injected with 20–50 nL of cRNA at a concentration of 1 ng·nL^−1 using a microinjector (Drummond Scientific, Broomall, PA, USA). The oocytes were stored for 1–3 days at 16 °C until sufficient expression of voltage-gated ion channels was achieved. Oocytes were maintained in an ND96 solution (in mM: 96 NaCl, 2 KCl, 1.8 CaCl2, 2 MgCl2 and 5 HEPES; pH 7.4), supplemented with 50 µg·mL^−1 gentamicin sulfate.” left out
as §3

[8] = molecular target: T8, hERG (Homo sapiens, UniProt Q12809); assay: Two-electrode voltage-clamp on Xenopus laevis oocytes expressing hERG (KV11.1); settings: 3 µM AbeTx1; TEVC, X. laevis oocytes, +40 mV pulse 2.5 s then −120 mV 2.5 s
T8 construct: expressed in transfected cells; host or cells: Xenopus laevis oocytes injected with cRNA
T8 sequence (Q12809 whole entry): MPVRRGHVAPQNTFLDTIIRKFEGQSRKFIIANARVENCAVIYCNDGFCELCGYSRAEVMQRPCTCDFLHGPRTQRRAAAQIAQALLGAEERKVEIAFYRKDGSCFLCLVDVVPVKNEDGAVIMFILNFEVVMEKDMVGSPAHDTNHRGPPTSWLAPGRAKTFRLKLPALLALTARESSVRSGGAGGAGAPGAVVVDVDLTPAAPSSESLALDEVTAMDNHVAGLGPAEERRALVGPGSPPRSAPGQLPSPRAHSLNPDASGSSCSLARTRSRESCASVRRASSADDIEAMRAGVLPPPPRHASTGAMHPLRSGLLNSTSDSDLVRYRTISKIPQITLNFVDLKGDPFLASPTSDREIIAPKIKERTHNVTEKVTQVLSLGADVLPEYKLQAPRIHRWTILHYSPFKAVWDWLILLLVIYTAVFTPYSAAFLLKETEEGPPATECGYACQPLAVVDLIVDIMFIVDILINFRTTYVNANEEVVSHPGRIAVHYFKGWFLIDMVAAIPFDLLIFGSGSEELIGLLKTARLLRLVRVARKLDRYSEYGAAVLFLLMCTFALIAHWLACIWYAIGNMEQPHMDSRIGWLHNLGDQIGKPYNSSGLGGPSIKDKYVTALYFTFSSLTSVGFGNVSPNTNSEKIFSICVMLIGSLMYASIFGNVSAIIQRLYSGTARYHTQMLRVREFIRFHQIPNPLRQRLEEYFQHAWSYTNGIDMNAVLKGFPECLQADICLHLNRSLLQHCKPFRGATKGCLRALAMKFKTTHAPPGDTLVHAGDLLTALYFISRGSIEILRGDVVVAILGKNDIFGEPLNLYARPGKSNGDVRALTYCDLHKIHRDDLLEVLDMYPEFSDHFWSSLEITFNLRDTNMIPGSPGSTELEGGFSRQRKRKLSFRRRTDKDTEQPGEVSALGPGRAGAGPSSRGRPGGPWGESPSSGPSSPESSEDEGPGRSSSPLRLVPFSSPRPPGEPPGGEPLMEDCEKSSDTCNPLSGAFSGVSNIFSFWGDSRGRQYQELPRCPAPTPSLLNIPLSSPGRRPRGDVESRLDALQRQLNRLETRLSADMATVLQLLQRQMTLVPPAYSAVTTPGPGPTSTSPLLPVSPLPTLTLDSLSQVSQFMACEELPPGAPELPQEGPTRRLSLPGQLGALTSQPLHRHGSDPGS
Description: as §1, with “Oocytes were injected with 20–50 nL of cRNA at a concentration of 1 ng·nL^−1 using a microinjector (Drummond Scientific, Broomall, PA, USA). The oocytes were stored for 1–3 days at 16 °C until sufficient expression of voltage-gated ion channels was achieved. Oocytes were maintained in an ND96 solution (in mM: 96 NaCl, 2 KCl, 1.8 CaCl2, 2 MgCl2 and 5 HEPES; pH 7.4), supplemented with 50 µg·mL^−1 gentamicin sulfate.” left out
as §3

Row | Structure (SMILES) | IC50 ([1]; mean ± SE, n ≥ 3, SEM) [µM] | IC50 ([2]; mean ± SE, n ≥ 3, SEM) [µM] | inhibition at 3 µM ([1]; 3 µM AbeTx1, TEVC, X. laevis oocytes, 500 ms depolarization to 0 mV from holding −90 mV, mean ± SE, n ≥ 3, SEM, read-out: inhibition of KV1.1 current) [%] | reduction of KV1.1 current, toxin added on top of TEA ([1]; AbeTx1 600 nM applied to bath already containing 200 μM TEA, n = 6) [%] | reduction of the KV1.1 K+ current at +70 mV ([1]; AbeTx1 600 nM, test potential +70 mV from holding −90 mV, n = 6) [%] | reduction of the KV1.1 K+ current at −20 mV ([1]; AbeTx1 600 nM, test potential −20 mV from holding −90 mV, n = 6) [%] | inhibition at 3 µM ([2]; 3 µM AbeTx1, TEVC, X. laevis oocytes, 500 ms depolarization to 0 mV from holding −90 mV, mean ± SE, n ≥ 3, SEM, read-out: inhibition of KV1.6 current) [%] | reduction of KV1.6 current, toxin added on top of TEA ([2]; AbeTx1 120 nM applied to bath already containing 920 μM TEA) [%] | inhibition at 3 µM [3] [%] | activity on NaV1.4 [4] | inhibition at 3 µM [5] [%] | activity on NaV1.2 [6] | inhibition at 3 µM [7] [%] | effect on KV11.1 (hERG) current [8]
1 | C[C@@H]1NC(=O)[C@@H](NC(=O)[C@@H](N)CCCNC(=N)N)CSSC[C@@H](C(=O)NCC(=O)O)NC(=O)[C@H](CC(N)=O)NC(=O)[C@@H]2CCCN2C(=O)[C@H](CCCCN)NC(=O)[C@@H]2CCCN2C(=O)[C@H](CCCNC(=N)N)NC(=O)[C@@H]2CSSC[C@H](NC(=O)[C@H]([C@@H](C)O)NC1=O)C(=O)N[C@@H](CO)C(=O)N[C@@H](CCCCN)C(=O)NCC(=O)N[C@@H](CCCNC(=N)N)C(=O)N2 [Lys3Ala] (H-RCATCSKGRCRPKPNCG-OH; disulfide 2-16, 5-10) | 27.5 | 18.9 |  |  |  |  |  |  |  |  |  |  |  | 
2 | C[C@@H](O)[C@@H]1NC(=O)[C@H](CCCCN)NC(=O)[C@@H](NC(=O)[C@@H](N)CCCNC(=N)N)CSSC[C@@H](C(=O)NCC(=O)O)NC(=O)[C@H](CC(N)=O)NC(=O)[C@@H]2CCCN2C(=O)[C@H](CCCCN)NC(=O)[C@@H]2CCCN2C(=O)[C@H](CCCNC(=N)N)NC(=O)[C@@H]2CSSC[C@H](NC1=O)C(=O)N[C@@H](CO)C(=O)N[C@@H](CCCCN)C(=O)NCC(=O)N[C@@H](CCCNC(=N)N)C(=O)N2 [AbeTx1] (H-RCKTCSKGRCRPKPNCG-OH; disulfide 2-16, 5-10) | 0.672 ± 0.15 | 0.116 ± 0.0314 | 83.7 ± 1.45 | 71.20 ± 2.18 | 11.07 ± 1.12 | 53.47 ± 5.07 | 95 ± 2.44 | 55.33 ± 2.47 | 95.3 ± 1.45 | no activity | 19.7 ± 2.18 | no activity | 15.5 ± 1.8 | not affected

— publication PMC6213216, “AbeTx1 Is a Novel Sea Anemone Toxin with a Dual Mechanism of Action on Shaker-Type K^+ Channels Activation” (Marine Drugs, 2018)
